Patent US20180354962A1, “[{[2,3-Dihydro-1H-inden-1-yl]amino}-2H,3H-furo[3,2-b]pyridin-3-yl]acetic acids, pharmaceutical compositions and uses thereof” (Boehringer Ingelheim International GmbH, priority 2015, published 2018)
In brackets after ≈: the same amount, converted by molar mass.

Assays:
[1] = Chemical stability (degradation kinetics) in acidic aqueous media, HPLC; assay type: physicochemical; details: acetonitrile/0.1 M aqueous HCl (2:3), pH ca. 1.2, 37° C.
Description: Degradation kinetics is used to simulate chemical stability of compounds in the acidic part of the gastro intestinal tract. […] Their application as medical drugs to treat human diseases is therefore less restricted and troublesome. The chemical stability of the compounds of the invention at pH value of ca. 1.2 is determined as follows: Compound is dissolved in an HPLC vial either in a mixture of acetonitrile/0.1 M aqueous HCl (2:3; pH ca. 1.2) or in a mixture of acetonitrile/McIlvaine buffer pH 7.4 (2:3) to get a concentration of approximately 0.25 mg/ml. The vial was then transferred into an HPLC autosampler system and maintained at a temperature of 37° C. A first sample is taken and injected immediately into a standard HPLC system with a UV DAD detector. Further samples are injected after 2, 4, 6, 8 and 10 hours. Degradation of the compound is measured by determining the recovery rate of compound [%] for each injection using an HPLC standard gradient method. Therefore the peak area of the main peak for the first injection (AUt0) is determined and set as 100%. Peak area of the main peak is determined also for the further injections (AUtn, n=2, 4, 6, 8, 10) and expressed as fraction of […][%].

[2] = biological target: T1, cytochrome P450 2C8-isoenzyme (Homo sapiens, UniProt P10632); experiment: Inhibition of CYP-2C8 (amodiaquine deethylation, human liver microsomes); assay type: in vitro ADME; details: human liver microsomes 0.05 mg/mL, amodiaquine 1 μM, 37° C.
T1 construct: is assayed at 37° C. with human liver microsomes; from tissue; host or cells: human liver microsomes
T1 sequence (P10632 1-490): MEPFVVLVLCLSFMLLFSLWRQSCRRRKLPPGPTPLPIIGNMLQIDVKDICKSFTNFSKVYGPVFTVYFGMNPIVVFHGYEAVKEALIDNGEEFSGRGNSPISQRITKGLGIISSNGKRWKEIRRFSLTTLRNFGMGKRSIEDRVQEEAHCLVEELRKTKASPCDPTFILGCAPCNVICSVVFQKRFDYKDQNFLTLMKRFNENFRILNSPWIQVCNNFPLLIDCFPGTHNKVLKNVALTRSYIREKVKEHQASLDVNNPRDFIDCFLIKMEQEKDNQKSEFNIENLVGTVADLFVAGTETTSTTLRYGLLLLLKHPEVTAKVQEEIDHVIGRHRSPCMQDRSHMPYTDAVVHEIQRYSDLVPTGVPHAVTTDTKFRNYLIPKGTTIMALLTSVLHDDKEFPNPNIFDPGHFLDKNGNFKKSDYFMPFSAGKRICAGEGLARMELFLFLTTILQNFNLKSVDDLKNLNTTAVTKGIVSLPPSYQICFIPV
Description: All assays are carried out on a robotic system in 96 well plates. The final incubation volume contains TRIS buffer (0.1 M), MgCl2 (5 mM), human liver microsomes (0.05 mg/mL), amodiaquine (1 μM) and the test compound at five different concentrations or no compound (high control) in duplicate (e.g. highest concentration 10-50 μM with subsequent serial 1:4 dilutions). Following a short preincubation period, reactions are started with the cofactor (NADPH, 1 mM) and stopped by cooling the incubation down to 8° C. and subsequently by addition of one volume of acetonitrile. An internal standard solution—the stable isotope d5-desethylamodiaquine—is added after quenching of incubations. Peak area analyte (=metabolite formed) and internal standard is determined by LC-MS/MS. The resulting peak area ratio analyte to internal standard in these incubations is compared to a control activity containing no test compound. Within each of the assay runs, the IC50 of a positive control inhibitor (Montelukast) is determined. Experimental IC50 values are calculated by least square regression according to the following equation: % control activity=(100% control activity/(1+(I/IC50)S))−B with I=inhibitor concentration; S=slope factor; B=background activity (lower plateau of the inhibition curve) If the inhibition of the reaction is already >50% at the lowest concentration of the test compound, the IC50 is assigned “<lowest concentration tested” (usually <0.4 μM). If the inhibition of the reaction is still <50% at the highest concentration of the test compound, the IC50 is assigned “>highest concentration tested” (usually >50 μM).

[3] = Aqueous solubility from DMSO stock, LC-UV; assay type: physicochemical; details: aqueous buffer, kinetic from dmso stock; buffer pH 2.2, 24 h shaking, 2.5% DMSO
Description: The aqueous solubility of the compounds of the invention is determined by comparing the amount dissolved in buffer to the amount in an acetonitrile/water (1/1) solution. Starting from a 10 mM DMSO stock solution aliquots are diluted with acetonitrile/water (1/1) or buffer, respectively. After 24 h of shaking, the solutions are filtrated and analyzed by LC-UV. The amount dissolved in buffer is compared to the amount in the acetonitrile solution. Solubility is usually being measured from 0.001 to 0.125 mg/mL at a DMSO concentration of 2.5%. If more than 90% of the compound is dissolved in buffer, the value is marked with “>”.

[4] = biological target: T2, cytochrome P450 2C9-isoenzyme (Homo sapiens, UniProt P11712); experiment: Inhibition of CYP-2C9 (diclofenac hydroxylation, human liver microsomes); assay type: in vitro ADME; details: human liver microsomes 0.1 mg/mL, diclofenac 10 μM, 37° C.
T2 construct: is assayed at 37° C. with human liver microsomes; from tissue; host or cells: human liver microsomes
Description: (§1) All assays are carried out on a robotic system in 96 well plates. The final incubation volume contains TRIS buffer (0.1 M), MgCl2 (5 mM), human liver microsomes (0.1 mg/mL), diclofenac (10 μM) and the test compound at five different concentrations or no compound (high control) in duplicate (e.g. highest concentration 10-50 μM with subsequent serial 1:4 dilutions). Following a short preincubation period, reactions are started with the cofactor (NADPH, 1 mM) and stopped by cooling the incubation down to 8° C. and subsequently by addition of one volume of acetonitrile. An internal standard solution—the stable isotope 13C6-hydroxydiclofenac—is added after quenching of incubations. Peak area analyte (=metabolite formed) and internal standard is determined by LC-MS/MS. The resulting peak area ratio analyte to internal standard in these incubations is compared to a control activity containing no test compound. Within each of the assay runs, the IC50 of a positive control inhibitor (sulfaphenazole) is determined. Experimental IC50 values are calculated by least square regression according to the following equation: % control activity=(100% control activity/(1+(I/IC50)S)))−B with I=inhibitor concentration S=slope factor B=background activity (lower plateau of the inhibition curve) If the inhibition of the reaction is already >50% at the lowest concentration of the test compound, the IC50 is assigned “<lowest concentration tested” (usually <0.4 μM). If the inhibition of the reaction is still <50% at the highest concentration of the test compound, the IC50 is assigned “>highest concentration tested” (usually >50 μM).

human GPR40 receptor = human GPR40 receptor (Homo sapiens, UniProt O14842); experiment: IP1 accumulation measurements using the IPOne assay system; assay type: cell-based; details: 1321N1 cells stably expressing human GPR40; 1 h stimulation at 37° C.
Description: IP1 accumulation measurements using the IPOne assay system—1321N1 cells stably expressing human GPR40 receptor (Euroscreen, Belgium) are seeded 24 h before the assay in white 384-well plates in culture medium containing 10% FCS, 1% Na-Pyruvate and 400 μg/mL G418. IP1 is assayed according to the manufacturer's description (Cisbio Bioassays, France). In brief, the assay is started by substitution of the culture medium by stimulation buffer (Hepes 10 mM, CaCl2 1 mM, MgCl2 0.5 mM, KCl 4.2 mM, NaCl 146 mM, glucose 5.5 mM and LiCl 50 mM, pH 7.4). Cells are stimulated for 1 h at 37° C., 5% CO2 by addition of the compounds that are diluted in stimulation buffer containing LiCl. Assays are stopped by adding HTRF-conjugates (IP1-d2 and Anti-IP1 cryptate Tb) and lysis buffer, provided by the manufacturer. After an incubation time of 1 h at room temperature plates are measured using an EnVision™, Perkin Elmer. The obtained fluorescence ratios at 665/615 […] are then used to calculate the pEC50 values using Assay Explorer 3.3 Software (Accelrys, Inc.) by interpolation using an IP1 reference curve and subsequent sigmoidal curve fitting allowing for a variable hill slope.

CYP2C9 = biological target: T3, CYP2C9 (Homo sapiens, UniProt P11712); experiment: Inhibition of CYP-2C9 (diclofenac hydroxylation, human liver microsomes); assay type: in vitro ADME; details: probe diclofenac (10 μM), hydroxylation, human liver microsomes 0.1 mg/mL, 37° C.
T3 construct: from tissue; host or cells: human liver microsomes
Description: as §1

human GPR40 receptor, sequence (O14842 whole entry): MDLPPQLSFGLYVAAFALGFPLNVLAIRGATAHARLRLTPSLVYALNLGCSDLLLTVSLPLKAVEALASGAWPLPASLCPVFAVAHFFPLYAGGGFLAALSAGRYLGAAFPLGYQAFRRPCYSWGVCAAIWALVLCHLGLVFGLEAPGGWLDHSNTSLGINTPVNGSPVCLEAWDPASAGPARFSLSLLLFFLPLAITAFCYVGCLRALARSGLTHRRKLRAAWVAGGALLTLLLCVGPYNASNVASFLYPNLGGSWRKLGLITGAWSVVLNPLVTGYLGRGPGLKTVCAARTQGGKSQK
T2 sequence (P11712 whole entry): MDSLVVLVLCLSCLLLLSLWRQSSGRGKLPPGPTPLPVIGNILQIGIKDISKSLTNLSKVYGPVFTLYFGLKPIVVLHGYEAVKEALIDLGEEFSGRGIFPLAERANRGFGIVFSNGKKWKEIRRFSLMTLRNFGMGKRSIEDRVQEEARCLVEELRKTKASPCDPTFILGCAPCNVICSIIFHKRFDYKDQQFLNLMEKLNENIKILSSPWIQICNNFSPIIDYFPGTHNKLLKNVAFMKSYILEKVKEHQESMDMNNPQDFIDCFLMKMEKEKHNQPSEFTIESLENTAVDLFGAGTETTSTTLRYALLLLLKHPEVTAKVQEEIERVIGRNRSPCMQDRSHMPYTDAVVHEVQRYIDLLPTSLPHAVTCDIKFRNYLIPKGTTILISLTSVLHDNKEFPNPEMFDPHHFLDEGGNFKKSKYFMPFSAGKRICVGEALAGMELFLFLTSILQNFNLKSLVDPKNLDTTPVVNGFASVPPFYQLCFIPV
T3 sequence (P11712 whole entry): as above

Row | SMILES | Amount of degradation after 2 h [1] | IC50 [2] | solubility at 24 h [3] | IC50 [4] | EC50 (human GPR40 receptor) | IC50 (CYP2C9)
1 | Cc1cc(OCCCS(C)(=O)=O)cc(C)c1-c1cccc2c1CC[C@H]2Oc1ccc2c(c1)OC[C@H]2CC(=O)O [2 (WO 2013/144098), reference compound] | 94% | 19 µM |  |  |  | 
2 | Cc1cc(OCCC(C)(C)O)cc(C)c1-c1ccc(F)c2c1CC[C@H]2Oc1ccc2c(c1)OC[C@H]2CC(=O)O [4 (WO 2013/144097), reference compound] | 13% | 6 µM | < 1 µg/mL | 21 µM |  | 
3 | Cc1cc(-c2nnn(C)n2)cc(C)c1-c1ccc(F)c2c1CC[C@H]2Oc1ccc2c(c1)OC[C@H]2CC(=O)O [95 (WO 2013/144097), reference compound] | 4% | 9 µM | < 1 µg/mL | 19 µM |  | 
4 | Cc1cc(OCCC(C)(C)O)cc(C)c1-c1ccc(F)c2c1CC[C@H]2Nc1cnc2c(c1)OC[C@H]2CC(=O)O [Example 2, 2-[(3S)-6-{[(1R)-7-Fluoro-4-[4-(3-hydroxy-3-methylbutoxy)-2,6-dimethylphenyl]-2,3-dihydro-1H-inden-1-yl]amino}-2H,3H-furo[3,2-b]pyridin-3-yl]acetic acid] | 0.2% | 32 µM | 60 µg/mL (≈ 112 µM) | > 50 µM | 0.061 µM | 
5 | Cc1cc(-c2nnn(C)n2)cc(C)c1-c1cccc2c1CC[C@H]2Nc1cnc2c(c1)OC[C@H]2CC(=O)O [Example 3, 2-[(3S)-6-{[(1R)-4-[2,6-Dimethyl-4-(2-methyl-2H-1,2,3,4-tetrazol-5-yl)phenyl]-2,3-dihydro-1H-inden-1-yl]amino}-2H,3H-furo[3,2-b]pyridin-3-yl]acetic acid] | <0.5% | 29 µM | 6 µg/mL (≈ 12.1 µM) | > 50 µM | 0.042 µM | 
6 | Cc1cc(OCCC(C)(C)O)cc(C)c1-c1cccc2c1CC[C@H]2Nc1cnc2c(c1)OC[C@H]2CC(=O)O [Example 4, 2-[(3S)-6-{[(1R)-4-[4-(3-Hydroxy-3-methylbutoxy)-2,6-dimethylphenyl]-2,3-dihydro-1H-inden-1-yl]amino}-2H,3H-furo[3,2-b]pyridin-3-yl]acetic acid] | <0.5% | 43 µM | 57 µg/mL (≈ 110 µM) | > 50 µM | 0.064 µM | 
7 | Cc1cc(-c2nnn(C)n2)cc(C)c1-c1ccc(F)c2c1CC[C@H]2Nc1cnc2c(c1)OC[C@H]2CC(=O)O [Example 5, 2-[(3S)-6-{[(1R)-4-[2,6-Dimethyl-4-(2-methyl-2H-1,2,3,4-tetrazol-5-yl)phenyl]-7-fluoro-2,3-dihydro-1H-inden-1-yl]amino}-2H,3H-furo[3,2-b]pyridin-3-yl]acetic acid] | 0.4% | 22 µM | 7 µg/mL (≈ 13.6 µM) | 48 µM | 0.026 µM | 
8 | CC(C)c1ccccc1-c1cccc2c1CC[C@H]2Nc1cnc2c(c1)OCC2CC(=O)O (stereo partly drawn) [Example 129, 2-(6-{[(1R)-4-[2-(Propan-2-yl)phenyl]-2,3-dihydro-1H-inden-1-yl]amino}-2H,3H-furo[3,2-b]pyridin-3-yl)acetic acid] |  | 12 µM | 4 µg/mL (≈ 9.33 µM) |  | 0.184 µM | 50 µM
9 | N#CC1(c2ccccc2-c2cccc3c2CC[C@H]3Nc2cnc3c(c2)OCC3CC(=O)O)CC1 (stereo partly drawn) [Example 131, 2-(6-{[(1R)-4-[2-(1-Cyanocyclopropyl)phenyl]-2,3-dihydro-1H-inden-1-yl]amino}-2H,3H-furo[3,2-b]pyridin-3-yl)acetic acid] |  | 37 µM | 67 µg/mL (≈ 148 µM) | > 50 µM | 6.39 µM | 
10 | Cc1nc(-c2cc(C)c(-c3cccc4c3CC[C@H]4Nc3cnc4c(c3)OCC4CC(=O)O)c(C)c2)no1 (stereo partly drawn) [Example 132, 2-(6-{[(1R)-4-[2,6-Dimethyl-4-(5-methyl-1,2,4-oxadiazol-3-yl)phenyl]-2,3-dihydro-1H-inden-1-yl]amino}-2H,3H-furo[3,2-b]pyridin-3-yl)acetic acid] |  | 23 µM | 3 µg/mL (≈ 6.04 µM) | > 50 µM | 0.036 µM | 
11 | Cc1cc(-c2cc(=O)n(C)cn2)cc(C)c1-c1cccc2c1CC[C@H]2Nc1cnc2c(c1)OCC2CC(=O)O (stereo partly drawn) [Example 133, 2-(6-{[(1R)-4-[2,6-Dimethyl-4-(1-methyl-6-oxo-1,6-dihydropyrimidin-4-yl)phenyl]-2,3-dihydro-1H-inden-1-yl]amino}-2H,3H-furo[3,2-b]pyridin-3-yl)acetic acid] |  | 21 µM | 78 µg/mL (≈ 149 µM) | > 50 µM | 0.033 µM | 
